Laboratory results: patent US8703797B2, “Condensed ring pyridine compounds as subtype-selective modulators of sphingosine-1-phosphate-2 (S1P2) receptors” (Allergan, Inc., priority 2009, dated 2014)

Tests used:
S1P3 = biological target: T1, S1P3 (Homo sapiens, UniProt Q99500); experiment: FLIPR calcium assay, cells expressing S1P3 and a G-protein; assay type: cell-based
T1 construct: expressed in transfected cells
Protocol: (§1) After removal of excess dye by washing, the cells are placed in the FLIPR TETRA instrument. Baseline fluorescence readings are taken prior to addition the compound to be tested. Agonists will trigger the receptor to interact with the G-protein, leading to an increase in intracellular calcium. The increase in intracellular calcium causes an increase in the fluorescence of the cells, due to the presence of fluo-4. This fluorescence increase is recorded by the FLIPR TETRA. After the calcium transient signal has decreased towards baseline, the standard agonist sphingosine 1-phosphate is added. If the test compound is an antagonist, an initial calcium signal will not be generated and the antagonist will prevent the generation of a calcium signal from sphingosine 1-phosphate.

S1P2 [1] = biological target: T2, S1P2 (Homo sapiens, UniProt O95136); experiment: S1P2 values marked (33P S1P); assay type: binding; settings: value marked (33P S1P)
T2 sequence (O95136 whole entry, species assumed): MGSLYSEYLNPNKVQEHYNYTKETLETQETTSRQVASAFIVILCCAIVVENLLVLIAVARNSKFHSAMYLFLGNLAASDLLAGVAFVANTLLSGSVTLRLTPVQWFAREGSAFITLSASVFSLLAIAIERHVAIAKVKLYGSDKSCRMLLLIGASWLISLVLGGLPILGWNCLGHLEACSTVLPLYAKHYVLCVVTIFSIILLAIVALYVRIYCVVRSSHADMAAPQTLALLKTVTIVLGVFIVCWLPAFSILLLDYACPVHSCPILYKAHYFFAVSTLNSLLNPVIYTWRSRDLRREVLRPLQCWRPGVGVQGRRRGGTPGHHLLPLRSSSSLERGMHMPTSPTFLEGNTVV

S1P1 = biological target: T3, S1P1 (Homo sapiens, UniProt P21453); experiment: FLIPR calcium assay, cells expressing S1P1 and a G-protein; assay type: cell-based
T3 construct: expressed in transfected cells
T3 sequence (P21453 whole entry, species assumed): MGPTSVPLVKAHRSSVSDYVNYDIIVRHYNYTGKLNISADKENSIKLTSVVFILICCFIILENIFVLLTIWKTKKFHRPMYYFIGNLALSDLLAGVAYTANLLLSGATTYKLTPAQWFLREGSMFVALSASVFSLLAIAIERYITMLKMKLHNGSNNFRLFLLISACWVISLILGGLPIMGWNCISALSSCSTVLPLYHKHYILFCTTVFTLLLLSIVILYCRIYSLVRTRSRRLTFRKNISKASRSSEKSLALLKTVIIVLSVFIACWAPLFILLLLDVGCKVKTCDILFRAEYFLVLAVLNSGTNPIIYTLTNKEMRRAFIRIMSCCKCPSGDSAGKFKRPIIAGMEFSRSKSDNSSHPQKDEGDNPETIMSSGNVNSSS
Protocol: as §1

S1P2 [2] = biological target: T2, S1P2; experiment: FLIPR calcium assay, cells expressing S1P2 and a G-protein; assay type: cell-based; settings: for FLIPR (% Antagonism) S1P2: antagonism versus sphingosine 1-phosphate
Protocol: as §1

T1 sequence (Q99500 whole entry, species assumed): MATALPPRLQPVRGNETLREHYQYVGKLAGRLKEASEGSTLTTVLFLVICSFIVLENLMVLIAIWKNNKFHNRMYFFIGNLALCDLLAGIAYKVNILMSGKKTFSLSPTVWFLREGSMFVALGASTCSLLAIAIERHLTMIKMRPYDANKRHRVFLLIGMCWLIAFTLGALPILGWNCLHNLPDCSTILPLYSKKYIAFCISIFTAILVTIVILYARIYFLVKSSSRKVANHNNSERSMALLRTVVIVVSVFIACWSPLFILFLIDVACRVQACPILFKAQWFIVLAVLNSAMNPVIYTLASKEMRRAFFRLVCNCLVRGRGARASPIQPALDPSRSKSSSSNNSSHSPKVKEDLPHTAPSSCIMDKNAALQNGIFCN

Row | Compound | EC50 (S1P3) [nM] | EC50 (S1P2 [1]) [nM] | EC50 (S1P1) [nM] | EC50 (S1P2 [2]) [nM] | FLIPR (% Antagonism) S1P2 (S1P2 [2])
1 | Cc1ccc(C)c2c(C(C)C)cc(NNC(=O)Nc3cc(Cl)cc(Cl)c3)nc12 [Example 22, N-(3,5-dichlorophenyl)-2-(4-isopropyl-5,8-dimethylquinolin-2-yl)hydrazinecarboxamide] | > 8300 | 199 | > 8300 |  | 
2 | Cc1nn(C)c2c(C(C)C)cc(CNC(=O)Nc3cc(Cl)nc(Cl)c3)nc12 [Example 2, 1-(2,6-dichloropyridin-4-yl)-3-((7-isopropyl-1,3-dimethyl-1H-pyrazolo[4,3-b]pyridin-5-yl)methyl)urea] | > 8300 | 23.8 | > 8300 | 118 | (91) %
3 | Cc1nn(C)c2c(C(C)C)cc(NNC(=O)Nc3cc(Cl)nc(Cl)c3)nc12 [Example 6, N-(2,6-dichloropyridin-4-yl)-2-(7-isopropyl-1,3-dimethyl-1H-pyrazolo[4,3-b]pyridin-5-yl)hydrazinecarboxamide] | > 8300 | 2.2 | > 8300 | 11 | (95) %
4 | Cc1ccc(C)c2c(C)cc(NNC(=O)Nc3cc(Cl)cc(Cl)c3)nc12 [Example 27, N-(3,5-dichlorophenyl)-2-(4,5,8-trimethylquinolin-2-yl)hydrazinecarboxamide] | > 8300 | 386 | > 8300 |  | 
5 | Cc1cc(NNC(=O)Nc2cc(Cl)cc(Cl)c2)nc2c(C)cccc12 [Example 25, N-(3,5-dichlorophenyl)-2-(4,8-dimethylquinolin-2-yl)hydrazinecarboxamide] | > 8300 | 451 | > 8300 |  | 
6 | CC(C)c1cc(NNC(=O)Nc2cc(Cl)cc(Cl)c2)nc2ccccc12 [Example 23, N-(3,5-dichlorophenyl)-2-(4-isopropylquinolin-2-yl)hydrazinecarboxamide] | > 8300 | 188 | > 8300 |  | 
7 | Cc1nn(C)c2c(C(C)C)cc(NNC(=O)Nc3cc(Cl)cc(Cl)c3)nc12 [Example 1, N-(3,5-dichlorophenyl)-2-(7-isopropyl-1,3-dimethyl-1H-pyrazolo[4,3-b]pyridin-5-yl)hydrazinecarboxamide] | > 8300 | 2.9 | > 8300 | 47 | (96) %
8 | Cc1nn(C)c2c(C(C)C)cc(NNC(=O)Nc3cc(C(F)(F)F)cc(C(F)(F)F)c3)nc12 [Example 7, N-(3,5-bis(trifluoromethyl)phenyl)-2-(7-isopropyl-1,3-dimethyl-1H-pyrazolo[4,3-b]pyridin-5-yl)hydrazinecarboxamide] | > 8300 |  | > 8300 | 196 | (98) %
9 | CCOc1cc(NC(=O)NNc2cc(C(C)C)c3c(n2)c(C)nn3C)ccn1 [Example 18, N-(2-ethoxypyridin-4-yl)-2-(7-isopropyl-1,3-dimethyl-1H-pyrazolo[4,3-b]pyridin-5-yl)hydrazinecarboxamide] | > 8300 | 266 | > 8300 |  | 
10 | CCOc1cc(NC(=O)NNc2cc(C(C)C)c3c(n2)c(C)nn3C)cc(Cl)n1 [Example 4, N-(2-chloro-6-ethoxypyridin-4-yl)-2-(7-isopropyl-1,3-dimethyl-1H-pyrazolo[4,3-b]pyridin-5-yl)hydrazinecarboxamide] | > 8300 | 1.5 | > 8300 |  | 
11 | COc1cc(OC)c(NC(=O)NNc2cc(C(C)C)c3c(n2)c(C)nn3C)cc1Cl [Example 19, N-(5-chloro-2,4-dimethoxyphenyl)-2-(7-isopropyl-1,3-dimethyl-1H-pyrazolo[4,3-b]pyridin-5-yl)hydrazinecarboxamide] | > 8300 | 40 | > 8300 |  | 
12 | CCCc1cc(NC(=O)NCc2cc(C(C)C)c3c(n2)c(C)nn3C)cc(Cl)n1 [Example 12, 1-(2-chloro-6-propylpyridin-4-yl)-3-((7-isopropyl-1,3-dimethyl-1H-pyrazolo[4,3-b]pyridin-5-yl)methyl)urea] | > 8300 | 2.1 | > 8300 | 24 | (99) %
13 | CCCOc1cc(NC(=O)NNc2cc(C(C)C)c3c(n2)c(C)nn3C)cc(Cl)n1 [Example 15, N-(2-chloro-6-propoxypyridin-4-yl)-2-(7-isopropyl-1,3-dimethyl-1H-pyrazolo[4,3-b]pyridin-5-yl)hydrazinecarboxamide] | > 8300 | 0.2 | > 8300 |  | 
14 | Cc1nn(C)c2c(C)cc(CNC(=O)Nc3cc(Cl)cc(Cl)c3)nc12 [Example 5, 1-(3,5-dichlorophenyl)-3-((1,3,7-trimethyl-1H-pyrazolo[4,3-b]pyridin-5-yl)methyl)urea] | > 8300 |  | > 8300 | 135 | (82) %
15 | Cc1nn(C)c2c(C(C)C)cc(CNC(=O)Nc3cc(Cl)cc(Cl)c3)nc12 [Example 9] | > 8300 | 26.4 | > 8300 | 149 | (52) %
16 | Cc1cc(NNC(=O)Nc2cc(Cl)nc(Cl)c2)nc2c(C)cccc12 [Example 24, N-(2,6-dichloropyridin-4-yl)-2-(4,8-dimethylquinolin-2-yl)hydrazinecarboxamide] | > 8300 | 390 | > 8300 |  | 
17 | COc1cc(NC(=O)NCc2cc(C(C)C)c3c(n2)c(C)nn3C)cc(Cl)n1 [Example 10, 1-(2-chloro-6-methoxypyridin-4-yl)-3-((7-isopropyl-1,3-dimethyl-1H-pyrazolo[4,3-b]pyridin-5-yl)methyl)urea] | > 8300 | 9.9 | > 8300 | 58 | (98) %
18 | CCOc1cc(NC(=O)NCc2cc(C(C)C)c3c(n2)c(C)nn3C)cc(Cl)n1 [Example 13, 1-(2-chloro-6-ethoxypyridin-4-yl)-3-((7-isopropyl-1,3-dimethyl-1H-pyrazolo[4,3-b]pyridin-5-yl)methyl)urea] | > 8300 | 0.5 | > 8300 |  | 
19 | 1-(2-chloro-6-propoxypyridin-4-yl)-3-((7-isopropyl-1,3-dimethyl-1H-pyrazolo[4,3-b]pyridin-5-yl)methyl)urea [Example 14] | > 8300 | 0.5 | > 8300 |  | 
20 | CCCc1cc(NC(=O)NNc2cc(C(C)C)c3c(n2)c(C)nn3C)cc(Cl)n1 [Example 11, N-(2-chloro-6-propylpyridin-4-yl)-2-(7-isopropyl-1,3-dimethyl-1H-pyrazolo[4,3-b]pyridin-5-yl)hydrazinecarboxamide] | > 8300 | 5 | > 8300 | 9 | (98) %
21 | CCCCOc1cc(NC(=O)NCc2cc(C(C)C)c3c(n2)c(C)nn3C)cc(Cl)n1 [Example 17, 1-(2-butoxy-6-chloropyridin-4-yl)-3-((7-isopropyl-1,3-dimethyl-1H-pyrazolo[4,3-b]pyridin-5-yl)methyl)urea] | > 8300 | 0.1 | > 8300 |  | 
22 | CCCCc1cc(NC(=O)NNc2cc(C(C)C)c3c(n2)c(C)nn3C)cc(Cl)n1 [Example 3, N-(2-butyl-6-chloropyridin-4-yl)-2-(7-isopropyl-1,3-dimethyl-1H-pyrazolo[4,3-b]pyridin-5-yl)hydrazinecarboxamide] | > 8300 | 5.7 | > 8300 | 8 | (99) %
23 | CCCCOc1cc(NC(=O)NNc2cc(C(C)C)c3c(n2)c(C)nn3C)cc(Cl)n1 [Example 16, N-(2-butoxy-6-chloropyridin-4-yl)-2-(7-isopropyl-1,3-dimethyl-1H-pyrazolo[4,3-b]pyridin-5-yl)hydrazinecarboxamide] | > 8300 | 0.1 | > 8300 |  | 
24 | CC(C)c1cc(NNC(=O)Nc2cc(Cl)cc(Cl)c2)nc2ncccc12 [Example 21, N-(3,5-dichlorophenyl)-2-(4-isopropyl-1,8-naphthyridin-2-yl)hydrazinecarboxamide] | > 8300 | 81 | > 8300 |  | 
25 | Cc1cc(NNC(=O)Nc2cc(Cl)cc(Cl)c2)nc2ncccc12 [Example 20, N-(3,5-dichlorophenyl)-2-(4-methyl-1,8-naphthyridin-2-yl)hydrazinecarboxamide] | > 8300 | 196 | > 8300 |  | 
26 | Cc1cc(NNC(=O)Nc2cc(Cl)nc(Cl)c2)nc2ccccc12 [Example 26, N-(2,6-dichloropyridin-4-yl)-2-(4-methylquinolin-2-yl)hydrazinecarboxamide] | > 8300 | 196 | > 8300 |  | 
